Experimental data: US10131652B2, “Pyrimidinyloxy benzene derivatives as herbicides” (E. I. DU PONT DE NEMOURS AND COMPANY, priority 2014, dated 2018)
Like-named read-outs stand apart in the source and are kept apart here.

Key:
Format in all cases: in vivo
[1] = test system: Italian ryegrass (Lolium multiflorum); test: Test D pre-/postemergence plant response; conditions: Lolium multiflorum; for pest or weed control at 16 g/ha: 16 g ai/ha; for pest or weed control at 31 g/ha: 31 g ai/ha; for pest or weed control at 62 g/ha: 62 g ai/ha
Source text: (§1) Seeds of plant species selected from blackgrass (Alopecurus myosuroides), Italian ryegrass (Lolium multiflorum), winter wheat (Triticum aestivum), galium (catchweed bedstraw, Galium aparine), corn (Zea mays), large (Lg) crabgrass (Digitaria sanguinalis), giant foxtail (Setaria faberii), johnsongrass (Sorghum halepense), lambsquarters (Chenopodium album), morningglory (Ipomoea coccinea), yellow nutsedge (Cyperus esculentus), pigweed (Amaranthus retroflexus), ragweed (common ragweed, Ambrosia elatior), soybean (Glycine max), bamyardgrass (Echinochloa crus-galli), oilseed rape (Brassica napus), waterhemp (common waterhemp, Amaranthus rudis), and velvetleaf (Abutilon theophrasti) were planted into a blend of loam soil and sand and treated preemergence with test chemicals formulated in a non-phytotoxic solvent mixture which included a surfactant. At the same time, plants selected from these crop and weed species and also kochia (Kochia scoparia), wild oat (Avena fatua), and chickweed (common chickweed, Stellaria media) were planted in pots containing Redi-Earth® planting medium (Scotts Company, 14111 Scottslawn Road, Marysville, Ohio 43041) comprising spaghnum peat moss, vermiculite, wetting agent and starter nutrients and treated with postemergence applications of test chemicals formulated in the same manner. Plants ranged in height from 2 to 18 cm (1- to 4-leaf stage) for postemergence treatments. Treated plants and controls were maintained in a greenhouse for 13 to 15 days, after which time all species were compared to controls and visually evaluated. Plant response ratings, summarized in Table D, are based on a scale of 0 to 100 where 0 is no effect and 100 is complete control. A dash (-) response means no test result.

[2] = test system: galium (catchweed bedstraw, Galium aparine); test: Test D pre-/postemergence plant response; conditions: Galium; for pest or weed control at 8 g/ha: 8 g ai/ha; for pest or weed control at 16 g/ha: 16 g ai/ha; for pest or weed control at 31 g/ha: 31 g ai/ha; for pest or weed control at 62 g/ha: 62 g ai/ha
Source text: as §1

[3] = test system: corn (Zea mays); test: Test D pre-/postemergence plant response; conditions: Zea mays; for Corn plant response rating (crop injury, 0 = no effect, 100 = complete kill) at 62 g/ha: 62 g ai/ha
Source text: as §1

[4] = test system: waterhemp (common waterhemp, Amaranthus rudis); test: Test D pre-/postemergence plant response; conditions: Amaranthus tuberculatus; for pest or weed control at 8 g/ha: 8 g ai/ha; for pest or weed control at 16 g/ha: 16 g ai/ha; for pest or weed control at 31 g/ha: 31 g ai/ha; for pest or weed control at 62 g/ha: 62 g ai/ha
Source text: as §1

[5] = test system: large (Lg) crabgrass (Digitaria sanguinalis); test: Test D pre-/postemergence plant response; conditions: Digitaria sanguinalis; for pest or weed control at 8 g/ha: 8 g ai/ha; for pest or weed control at 16 g/ha: 16 g ai/ha; for pest or weed control at 31 g/ha: 31 g ai/ha; for pest or weed control at 62 g/ha: 62 g ai/ha
Source text: as §1

[6] = test system: wheat (Triticum aestivum); test: Test B pre-/postemergence plant response; conditions: Triticum aestivum, 240 h, 1000 g ai/ha, 0 to 100 scale (0 no effect, 100 complete control), read-out: Plant response rating, Wheat
How it was run: (§2)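 Visual injury rating, 0 (no effect) to 100 (complete control), vs untreated controls after ~10 d greenhouse. Pre: directed soil spray after planting in loam/sand. Post: plants 2–10 cm, 1–2 leaf stage. Compound in non-phytotoxic solvent plus surfactant.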

[7] = test system: giant foxtail (Setaria faberii); test: Test B pre-/postemergence plant response; conditions: Setaria faberi, 240 h, 1000 g ai/ha, 0 to 100 scale (0 no effect, 100 complete control), read-out: Plant response rating, Foxtail, Giant
How it was run: as §2

[8] = test system: barnyardgrass (Echinochloa crus-galli); test: Test B pre-/postemergence plant response; conditions: Echinochloa crus-galli, 240 h, 1000 g ai/ha, 0 to 100 scale (0 no effect, 100 complete control), read-out: Plant response rating, Barnyardgrass
How it was run: as §2

[9] = test system: corn (Zea mays); test: Test B pre-/postemergence plant response; conditions: Zea mays, 240 h, 1000 g ai/ha, 0 to 100 scale (0 no effect, 100 complete control)
How it was run: as §2

[10] = test system: pigweed (Amaranthus retroflexus); test: Test B pre-/postemergence plant response; conditions: Amaranthus retroflexus, 240 h, 1000 g ai/ha, 0 to 100 scale (0 no effect, 100 complete control), read-out: Plant response rating, Pigweed
How it was run: as §2

[11] = post-emergence, Postemergence, scale 0 to 100 (0 no effect, 100 complete control), read-out: Ryegrass, Italian plant response rating
[12] = pre-emergence, Preemergence, scale 0 to 100 (0 no effect, 100 complete control), read-out: Plant response rating, Ryegrass, Italian
[13] = post-emergence, Postemergence, scale 0 to 100 (0 no effect, 100 complete control), read-out: Galium plant response rating
[14] = pre-emergence, Preemergence, scale 0 to 100 (0 no effect, 100 complete control), read-out: Plant response rating, Galium
[15] = post-emergence, Postemergence, scale 0 to 100 (0 no effect, 100 complete control), read-out: Waterhemp plant response rating
[16] = pre-emergence, Preemergence, scale 0 to 100 (0 no effect, 100 complete control), read-out: Plant response rating, Waterhemp
[17] = post-emergence, Postemergence, scale 0 to 100 (0 no effect, 100 complete control), read-out: Crabgrass, Large plant response rating
[18] = pre-emergence, Preemergence, scale 0 to 100 (0 no effect, 100 complete control), read-out: Plant response rating, Crabgrass, Large

## FC(F)c1cc(-c2ccccc2Oc2ncc(Cl)cn2)no1 [Compound 35, 5-chloro-2-[2-[5-(difluoromethyl)-3-isoxazolyl]phenoxy]pyrimidine]
[1]; [11]
  pest or weed control at 16 g/ha: 0%
  pest or weed control at 31 g/ha: 5%
[1]; post-emergence, Postemergence, scale 0 to 100, 0 no effect, 100 complete control, read-out: Plant response rating, Ryegrass, Italian
  pest or weed control at 62 g/ha: 20%
[1]; pre-emergence, Preemergence, 8 g ai/ha, scale 0 to 100 (0 no effect, 100 complete control), read-out: Plant response rating, Ryegrass, Italian
  pest or weed control at 8 g/ha: 0%
[1]; [12]
  pest or weed control at 16 g/ha: 0%
  pest or weed control at 31 g/ha: 30%
  pest or weed control at 62 g/ha: 80%
[2]; post-emergence, Postemergence, read-out: Plant response rating (scale 0 to 100), Galium
  pest or weed control at 8 g/ha: 80%
[2]; [13]
  pest or weed control at 16 g/ha: 70%
  pest or weed control at 31 g/ha: 75%
[2]; post-emergence, Postemergence, scale 0 to 100, 0 no effect, 100 complete control, read-out: Plant response rating, Galium
  pest or weed control at 62 g/ha: 85%
[2]; [14]
  pest or weed control at 8 g/ha: 85%
  pest or weed control at 16 g/ha: 100%
  pest or weed control at 31 g/ha: 100%
  pest or weed control at 62 g/ha: 100%
[3]; post-emergence, Postemergence, 8 g ai/ha, read-out: Plant response rating (scale 0 to 100), Corn
  plant injury at 8 g/ha: 5%
[3]; post-emergence, Postemergence, 16 g ai/ha, scale 0 to 100 (0 no effect, 100 complete control), read-out: Corn plant response rating
  plant injury at 16 g/ha: 5%
[3]; post-emergence, Postemergence, 31 g ai/ha, scale 0 to 100 (0 no effect, 100 complete control), read-out: Corn plant response rating
  plant injury at 31 g/ha: 10%
[3]; post-emergence, Postemergence, scale 0 to 100, 0 no effect, 100 complete control
  Corn plant response rating (crop injury, 0 = no effect, 100 = complete kill) at 62 g/ha: 20%
[3]; pre-emergence, Preemergence, 8 g ai/ha, scale 0 to 100 (0 no effect, 100 complete control)
  Corn plant response rating (crop injury, 0 = no effect, 100 = complete kill) at 8 g/ha: 0%
[3]; pre-emergence, Preemergence, 16 g ai/ha, scale 0 to 100 (0 no effect, 100 complete control)
  Corn plant response rating (crop injury, 0 = no effect, 100 = complete kill) at 16 g/ha: 0%
[3]; pre-emergence, Preemergence, 31 g ai/ha, scale 0 to 100 (0 no effect, 100 complete control)
  Corn plant response rating (crop injury, 0 = no effect, 100 = complete kill) at 31 g/ha: 0%
[3]; pre-emergence, Preemergence, scale 0 to 100 (0 no effect, 100 complete control)
  Corn plant response rating (crop injury, 0 = no effect, 100 = complete kill) at 62 g/ha: 15%
[4]; post-emergence, Postemergence, read-out: Plant response rating (scale 0 to 100), Waterhemp
  pest or weed control at 8 g/ha: 75%
[4]; [15]
  pest or weed control at 16 g/ha: 75%
  pest or weed control at 31 g/ha: 95%
[4]; post-emergence, Postemergence, scale 0 to 100, 0 no effect, 100 complete control, read-out: Plant response rating, Waterhemp
  pest or weed control at 62 g/ha: 98%
[4]; [16]
  pest or weed control at 8 g/ha: 100%
  pest or weed control at 16 g/ha: 100%
  pest or weed control at 31 g/ha: 100%
  pest or weed control at 62 g/ha: 100%
[5]; post-emergence, Postemergence, read-out: Plant response rating (scale 0 to 100), Crabgrass, Large
  pest or weed control at 8 g/ha: 5%
[5]; [17]
  pest or weed control at 16 g/ha: 10%
  pest or weed control at 31 g/ha: 10%
[5]; post-emergence, Postemergence, scale 0 to 100, 0 no effect, 100 complete control, read-out: Plant response rating, Crabgrass, Large
  pest or weed control at 62 g/ha: 10%
[5]; [18]
  pest or weed control at 8 g/ha: 80%
  pest or weed control at 16 g/ha: 100%
  pest or weed control at 31 g/ha: 100%
  pest or weed control at 62 g/ha: 100%
[6]; post-emergence, Postemergence
  plant injury at 1000 g/ha: 80%
[6]; pre-emergence, Preemergence
  plant injury at 1000 g/ha: 60%
[7]; post-emergence, Postemergence
  pest or weed control at 1000 g/ha: 90%
[7]; pre-emergence, Preemergence
  pest or weed control at 1000 g/ha: 100%
[8]; post-emergence, Postemergence
  pest or weed control at 1000 g/ha: 100%
[8]; pre-emergence, Preemergence
  pest or weed control at 1000 g/ha: 100%
[9]; post-emergence, Postemergence
  Corn plant response rating (crop injury, 0 = no effect, 100 = complete kill) at 1000 g/ha: 90%
[9]; pre-emergence, Preemergence
  Corn plant response rating (crop injury, 0 = no effect, 100 = complete kill) at 1000 g/ha: 30%
[10]; post-emergence, Postemergence
  pest or weed control at 1000 g/ha: 100%
[10]; pre-emergence, Preemergence
  pest or weed control at 1000 g/ha: 10%
